Patent US20100081613A1, “METHODS AND COMPOSITIONS FOR ENHANCING MEMORY” (THE TRUSTEES OF COLUMBIA UNIVERSITY IN THE CITY OF NEW YORK, priority 2006, published 2010)

How the values were obtained:
[1] = system: hippocampal slices; assay: Paired pulse facilitation (PPF) at the CA3-CA1 connection; type: cell-based, mouse
[2] = system: hippocampal slices
[3] = molecular target: rodent Aβ42 (Mus musculus; Rattus norvegicus); assay: cell-based or functional assay

| Compound | PPF ([1]; 20 ms interval, MCL 3 μM for 20 min plus Aβ42) | PPF ([1]; 30 ms interval, MCL 3 μM for 20 min plus Aβ42) | PPF ([1]; 40 ms interval, MCL 3 μM for 20 min plus Aβ42) | PPF ([1]; 50 ms interval, MCL 3 μM for 20 min plus Aβ42) | PPF ([1]; MCL 3 μM for 20 min alone) [%] | PTP [2] | contextual fear conditioning, freezing 24 hrs after training, m3.2 mAb 1 µg in 1 µl into dorsal hippocampi (% of freezing) [3] |
| --- | --- | --- | --- | --- | --- | --- | --- |
| CNC1(C)C2CCC(C2)C1(C)C (centres unmarked) [MCL, mecamylamine] | 138.18±22.01 % of facilitation | 158.58±16.79 % of facilitation | 176.71±17.51 % of facilitation | 197.49±22.30 % of facilitation | 214.53±20.85 | does not affect PTP | – |
| α-bungarotoxin [α-BgTx] | – | – | – | – | – | does not affect PTP | – |
| anti-rodent Aβ monoclonal antibody m3.2 | – | – | – | – | – | – | 16.8 |
